According to US11649222B2, “Compounds” (UNIVERSITETET I OSLO, priority 2016, dated 2023):
Where two headings read alike, the source gives them in different places.

Assays:
[1] = test system: human serum albumin and α1-acid glycoprotein (AGP); conditions: 500 μM Example 26; HSA and AGP 24:1 up to 140 μM
Method: Enzymes in the kit are immobilized at a solid phase. […] Buffer without inhibitor was included as a control. After incubation, the suspensions were centrifuged and diluted 1:10 in 50 mM HEPES buffer pH 7.5 supplemented with 1 μM zinc^2+ and VIM-2 (final concentration 1 nM).

[2] = test system: P. aeruginosa 50808021 (No MBL); test: Microbroth dilution MIC of meropenem with/without inhibitor; format: cell-based; conditions: inhibitor 25 mg/L
How it was run: (§1)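 Broth microdilution in MH broth with 2-fold compound/antibiotic dilution series. Inoculum from a 0.5 McFarland suspension diluted 1:100, final 3-7×10^5 CFU/ml confirmed by colony count. Strains pre-grown overnight at 37° C, ampicillin 100 mg/L plates for ESBL/carbapenemase producers.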

[3] = test system: P. aeruginosa 50692172 (NDM-1); test: as above; format: cell-based; conditions: inhibitor 25 mg/L
How it was run: as §1

[4] = test system: K. pneumoniae 50732159 (No MBL); test: as above; format: cell-based; conditions: inhibitor 25 mg/L
How it was run: as §1

[5] = test system: K. pneumoniae (VIM); test: Microbroth dilution MIC of meropenem ± 25 mg/L inhibitor; format: cell-based
Method: (§2) • Plate bacterial strain(s) on appropriate media: • Gram-negative bacteria with ESBLs or carbapenemases: green agar plates with 100 mg/L ampicillin • Gram-negative bacteria without β-lactamases: green agar plates • Gram-positive bacteria (Staphylococci and Enterococci): blood agar plates • Incubate o.n. at 37° C. Day 2: Prepare the Bacterial Inoculum: • Prepare a 0.5 McFarland suspension of bacteria in 0.85% NaCl. (Should be used within 15 min of preparation). • Dilute the 0.5 McFarland suspension 1:100 into MH broth. Check the inoculum by diluting the prepared bacterial suspension 1:100 (10 μl bacterial suspension+990 μl 0.85% NaCl). Plate 10 μl of the dilution on MH agar plates (×2). Incubate o.n. at 37° C., count the colonies and calculate the final CFU/ml inoculum in the plate by multiplying the average number of colonies with 10000 and divide by 2. The final inoculum should be between 3-7×10^5 CFU/ml. • Add 50 μl of the prepared bacterial suspension to each well in the microtiter plate except negative growth control. Preparation of Compounds/Antibiotics • Calculate the desired concentration-range and volume of the compounds/antibiotics in the assay. […] Dilute the stock solution in MH broth. Make subsequent 2-fold dilutions in MH broth of the desired concentrations if a concentration range is to be tested (remember the extra dilution factor in the assay plate). Always include extra volume for pipetting. Take into consideration stock solutions that are made in buffers that have an effect on bacterial growth (e.g. DMSO).

[6] = test system: E. cloacae (VIM); test: as above; format: cell-based
Method: as §2

[7] = test system: K. pneumoniae (NDM-1); test: as above; format: cell-based
Method: as §2

[8] = test system: P. stuartii (NDM); test: as above; format: cell-based
Method: as §2

[9] = test system: P. mirabilis (NDM-1); test: as above; format: cell-based
Method: as §2

[10] = test system: C. freundii (NDM); test: as above; format: cell-based
Method: as §2

[11] = test system: M. morganii (OXA48+ NDM-1); test: as above; format: cell-based
Method: as §2

[12] = test system: C. freundii (NDM-1); test: as above; format: cell-based
Method: as §2

[13] = test system: E. coli (VIM-1); test: as above; format: cell-based
Method: as §2

[14] = test system: P. stuartii (NDM-1); test: as above; format: cell-based
Method: as §2

[15] = test system: K. pneumoniae (NDM-7); test: as above; format: cell-based
Method: as §2

[16] = test system: K. pneumoniae K66-45; format: cell-based
Method: After plating and grown overnight at 37° C., only single colonies, ignoring any touching the edges of the plate, were counted.
10^9 CFU K66-45 (Mueller-Hinton broth, no selection) was plated and grown overnight, 37° C. Only single colonies, ignoring any touching the edges of the plate, were counted.

[17] = test system: Klebsiella pneumoniae harboring NDM-1; test: Time-kill study with meropenem; format: cell-based
Method: Mueller-Hinton broth (MHB) was warmed from fridge temperature cold. […] A sample of Example 26 was dissolved in DMSO.
The 96-well plates were prepared using a multi-channel pipette, adding […] PBS to columns 2-9, or the required number of dilutions needed in the experiment. Each Inoculum was prepared by picking a single colony from the fresh plate that was disperged into 1 mL MHB, the loop was agitated to ensure all the colony comes off the loop. The tube was Vortex mixed, and a 100 μL aliquot was taken from the tube into 9.9 mL of MHB into the media bottle. […] The procedure was repeated for as many samples needed in the study. Aliquots of 5 mL inoculum were transferred to as many media bottles as needed, e.g. 4 mg/L MEM, 4 mg/L MEM+50 μM test substance, 4 mg/L MEM+100 μM test substance. Then […] aliquots were taken from each culture and added to Column 1 on the 96 well plate, e.g. culture 1: 50 μl into A1, […] into B1 etc. for time point 0 h. Then […] MEM was added into each bottle, followed by the required amount of test substance. The bottles were mixed gently to avoid formation of bubbles, and incubated in a secondary container at 37° C. at 180 rpm. Finally, serial dilutions were performed using multi-channel pipette taking 30 μL for column 1, adding to column 2, mixing well, repeating from column 2 to 3 with clean pipette tips.

[18] = K. pneumoniae NDM-1 (several strains)
[19] = Klebsiella pneumoniae, read-out: MIC meropenem alone
[20] = Providencia stuartii, read-out: MIC meropenem alone
[21] = Citrobacter freundii, read-out: MIC meropenem alone

CN(C[C@H](O)[C@@H](O)[C@H](O)[C@H](O)CO)C(=O)c1ccc(CN(Cc2ccccn2)Cc2ccccn2)nc1 [Example 26, 6-((bis(pyridin-2-ylmethyl)amino)methyl)-N-methyl-N-((2S,3R,4R,5R)-2,3,4,5,6-pentahydroxyhexyl)nicotinamide]
effect of protein binding on inhibition of VIM-2 [1]: protein binding is not affecting the inhibitory activity | Meropenem activity in presence of inhibitor [2]: >64 mg/L | Meropenem activity in presence of inhibitor [3]: 4 mg/L | Meropenem activity in presence of inhibitor [4]: 32 mg/L | MIC meropenem + 25 mg/L Example 26 [5]: 0.06 µg/mL | MIC meropenem + 25 mg/L Example 26 [6]: <0.03 µg/mL | MIC meropenem + 25 mg/L Example 26 [7, 18]: 0.125 µg/mL | MIC meropenem + 25 mg/L Example 26 [8]: 0.25 µg/mL | MIC meropenem + 25 mg/L Example 26 [9]: 0.125 µg/mL | MIC meropenem + 25 mg/L Example 26 [10]: 0.06 µg/mL | MIC meropenem + 25 mg/L Example 26 [11]: 1 µg/mL | MIC meropenem + 25 mg/L Example 26 [12]: 0.06 µg/mL | MIC meropenem + 25 mg/L Example 26 [13]: <0.03 µg/mL | MIC meropenem + 25 mg/L Example 26 [14]: 0.06 µg/mL | MIC meropenem + 25 mg/L Example 26 [15]: <0.03 µg/mL | Resistance/mutant frequency (number of colonies) ([16]; Example 26 15 mg/L, 8 mg/L MEM): n.c. | Resistance/mutant frequency (number of colonies) ([16]; Example 26 25 mg/L, 4 mg/L MEM): n.c. | Resistance/mutant frequency (number of colonies) ([16]; Example 26 25 mg/L, 8 mg/L MEM): n.c. | Resistance/mutant frequency (number of colonies) ([16]; Example 26 50 mg/L, 4 mg/L MEM): n.c. | Resistance/mutant frequency (number of colonies) ([16]; Example 26 50 mg/L, 8 mg/L MEM): n.c. | time after which CFU drops to below the limit of detection (LOD) ([17]; Example 26 + 4 mg/L meropenem, irrespective of the concentration of Example 26): 5 to 10 h | period CFU stays below LOD ([17]; Example 26 + 4 mg/L meropenem, period of the study): ≥ 30 h

C[C@@H](O)[C@H]1C(=O)N2C(C(=O)O)=C(S[C@@H]3CN[C@H](C(=O)N(C)C)C3)[C@H](C)[C@H]12 [meropenem, reference compound]
MIC [5, 19]: 4 µg/mL | MIC ([6]; Enterobacter cloacae, read-out: MIC meropenem alone): 8 µg/mL | MIC meropenem alone [7, 18]: 32 µg/mL | MIC ([7]; Klebsiella pneumoniae, read-out: MIC meropenem alone, K. pneumoniae NDM-1 (several strains)): 64 µg/mL | MIC [8, 20]: 64 µg/mL | MIC ([9]; Proteus mirabilis, read-out: MIC meropenem alone): 32 µg/mL | MIC [10, 21]: 16 µg/mL | MIC ([11]; Morganella morganii, read-out: MIC meropenem alone): 8 µg/mL | MIC [12, 21]: 4 µg/mL | MIC ([13]; Escherichia coli, read-out: MIC meropenem alone): 0.5 µg/mL | MIC [14, 20]: 8 µg/mL | MIC [15, 19]: 64 µg/mL | time after which CFU starts to increase ([17]; 4 mg/L meropenem alone): about 5 hours
